Data as given in patent US6884813B2, “Antimicrobial dihydrothiazine and dihydrothiopyran oxazolidinones” (Pharmacia & Upjohn Company, priority 2002, dated 2005).
In brackets after ≈: the same amount, converted by molar mass.

Experiments:
SPNE 9912 = assay: Minimum inhibitory concentration (MIC) by agar dilution; assay type: cell-based; conditions: Streptococcus pneumoniae, lowest concentration of drug that inhibits visible growth of the organism, strain SPNE 9912, read-out: Antibacterial Activity, Minimum Inhibitory Concentration (MIC μg/mL) SPNE 9912
Text: Compounds of this invention have useful activity against a variety of organisms. The in vitro activity of compounds of this invention can be assessed by standard testing procedures such as the determination of minimum inhibitory concentration (MIC) by agar dilution as described in “Approved Standard. Methods for Dilution Antimicrobial Susceptibility Tests for Bacteria That Grow Aerobically”, 3rd. ed., published 1993 by the National Committee for Clinical Laboratory Standards, Villanova, Pa., USA. Minimum inhibitory concentration (MIC) refers to lowest concentration of drug (μg/mL) that inhibits visible growth of the organism. “- -” refers to the activity data is not available.

MIC (SPNE 9912) [µg/mL] | melting point [°C] | Compound
0.5 (≈ 1.3 µM) | 193 to 194 | CC(=O)NC[C@H]1CN(c2ccc(N3C=CS(=O)(=O)CC3)c(F)c2)C(=O)O1 [Example 7, N-[[(5S)-3-[4-(2,3-dihydro-1,1-dioxido-4H-1,4-thiazin-4-yl)-3-fluorophenyl]-2-oxo-5-oxazolidinyl]methyl]acetamide]
0.25 (≈ 0.551 µM) |  | O=C1O[C@@H](CNC(=S)C(F)F)CN1c1cc(F)c(N2C=CS(=O)(=O)CC2)c(F)c1 [Example 27, N-[[(5S)-3-[4-(2,3-dihydro-1,1-dioxido-4H-1,4-thiazin-4-yl)-3,5-difluorophenyl]-2-oxo-5-oxazolidinyl]methyl]-2,2-difluoroethanethioamide]
0.5 (≈ 1.2 µM) |  | O=C1O[C@@H](CNC(=S)C(F)F)CN1c1ccc(N2C=CS(=O)(=O)CC2)cc1 [Example 24, N-[[(5S)-3-[4-(2,3-dihydro-1,1-dioxido-4H-1,4-thiazin-4-yl)phenyl]-2-oxo-5-oxazolidinyl]methyl]-2,2-difluoroethanethioamide]
0.5 (≈ 1.19 µM) |  | O=C(NC[C@H]1CN(c2ccc(N3C=CS(=O)(=O)CC3)c(F)c2)C(=O)O1)C(F)F [Example 23, N-[[(5S)-3-[4-(2,3-dihydro-1,1-dioxido-4H-1,4-thiazin-4-yl)-3-fluorophenyl]-2-oxo-5-oxazolidinyl]methyl]-2,2-difluoroacetamide]
0.5 (≈ 1.11 µM) |  | O=C1O[C@@H](CNC(=S)C(F)F)CN1c1cc(F)c(C2C=CS(=O)(=O)CC2)c(F)c1 (stereo partly drawn) [Example 32, N-({(5S)-3-[4-(1,1-dioxido-3,4-dihydro-2H-thiopyran-4-yl)-3,5-difluorophenyl]-2-oxo-1,3-oxazolidin-5-yl}methyl)-2,2-difluoroethanethioamide]
0.25 (≈ 0.553 µM) |  | O=C(NC[C@H]1CN(c2ccc(N3C=CS(=O)(=O)CC3)c(F)c2)C(=O)O1)C(Cl)Cl [Example 22, 2,2-dichloro-N-[[(5S)-3-[4-(2,3-dihydro-1,1-dioxido-4H-1,4-thiazin-4-yl)-3-fluorophenyl]-2-oxo-5-oxazolidinyl]methyl]acetamide]
0.25 (≈ 0.6 µM) | 139 to 140 | O=C1O[C@@H](CNC(=S)C(F)F)CN1c1ccc(C2C=CS(=O)(=O)CC2)cc1 (stereo partly drawn) [Example 17, [[(5S)-3-[4-(3,4-dihydro-1,1-dioxido-2H-thiopyran-4-yl)phenyl]-2-oxo-5-oxazolidinyl]methyl]-2,2-difluoroethanethioamide]
1 (≈ 2.49 µM) |  | O=C(NC[C@H]1CN(c2ccc(N3C=CS(=O)(=O)CC3)cc2)C(=O)O1)C(F)F [Example 26, N-[[(5S)-3-[4-(2,3-dihydro-1,1-dioxido-4H-1,4-thiazin-4-yl)phenyl]-2-oxo-5-oxazolidinyl]methyl]-2,2-difluoroacetamide]
1 (≈ 2.3 µM) |  | O=C(NC[C@H]1CN(c2ccc(N3C=CS(=O)(=O)CC3)cc2)C(=O)O1)C(Cl)Cl [Example 25, 2,2-dichloro-N-[[(5S)-3-[4-(2,3-dihydro-1,1-dioxido-4H-1,4-thiazin-4-yl)phenyl]-2-oxo-5-oxazolidinyl]methyl]acetamide]
0.25 (≈ 0.574 µM) |  | O=C1O[C@@H](CNC(=S)C(F)F)CN1c1ccc(N2C=CS(=O)(=O)CC2)c(F)c1 [Example 21, N-[[(5S)-3-[4-(2,3-dihydro-1,1-dioxido-4H-1,4-thiazin-4-yl)-3-fluorophenyl]-2-oxo-5-oxazolidinyl]methyl]-2,2-difluoroethanethioamide]
0.5 (≈ 1.25 µM) | 135 to 136 | O=C(NC[C@H]1CN(c2ccc(C3C=CS(=O)(=O)CC3)cc2)C(=O)O1)C(F)F (stereo partly drawn) [Example 15, N-[[(5S)-3-[4-(3,4-dihydro-1,1-dioxido-2H-thiopyran-4-yl)phenyl]-2-oxo-5-oxazolidinyl]methyl]-2,2-difluoroacetamide]
0.5 (≈ 1.14 µM) |  | O=C(NC[C@H]1CN(c2cc(F)c(N3C=CS(=O)(=O)CC3)c(F)c2)C(=O)O1)C(F)F [Example 29, N-[[(5S)-3-[4-(2,3-dihydro-1,1-dioxido-4H-1,4-thiazin-4-yl)-3,5-difluorophenyl]-2-oxo-5-oxazolidinyl]methyl]-2,2-difluoroacetamide]
0.25 (≈ 0.575 µM) |  | O=C1O[C@@H](CNC(=S)C(F)F)CN1c1ccc(C2C=CS(=O)(=O)CC2)c(F)c1 (stereo partly drawn) [Example 10, N-[[(5S)-3-[4-(3,4-dihydro-1,1-dioxido-2H-thiopyran-4-yl)-3-fluorophenyl]-2-oxo-5-oxazolidinyl]methyl]-2,2-difluoroethanethioamide]

Further lines, the compound ahead of its results:

Compound | MIC (SPNE 9912) [µg/mL] | melting point [°C]
CC(=S)NC[C@H]1CN(c2ccc(C3C=CSCC3)c(F)c2)C(=O)O1 (stereo partly drawn) [Example 3, N-[[(5S)-3-[4-(3,4-dihydro-2H-thiopyran-4-yl)-3-fluorophenyl]-2-oxo-5-oxazolidinyl]methyl]ethanethioamide] | 0.5 (≈ 1.36 µM) | 
CC(=O)NC[C@H]1CN(c2ccc(C3C=CS(=O)(=O)CC3)cc2)C(=O)O1 (stereo partly drawn) [Example 14, N-[[(5S)-3-[4-(3,4-dihydro-1,1-dioxido-2H-thiopyran-4-yl)phenyl]-2-oxo-5-oxazolidinyl]methyl]acetamide] | 1 (≈ 2.74 µM) | 187 to 189
O=C1O[C@@H](CNC(=O)C(F)(F)F)CN1c1ccc(C2C=CSCC2)c(F)c1 (stereo partly drawn) [Example 1, N-[[(5S)-3-[4-(3,4-dihydro-2H-thiopyran-4-yl)-3-fluorophenyl]-2-oxo-5-oxazolidinyl]methyl]-2,2,2-trifluoroacetamide] | 2 (≈ 4.95 µM) | 
CC(=O)NC[C@H]1CN(c2ccc(C3C=CSCC3)c(F)c2)C(=O)O1 (stereo partly drawn) [Example 2, N-[[(5S)-3-[4-(3,4-dihydro-2H-thiopyran-4-yl)-3-fluorophenyl]-2-oxo-5-oxazolidinyl]methyl]acetamide] | 1 (≈ 2.85 µM) | 
CC(=O)NC[C@H]1CN(c2ccc(C3C=CS(=O)(=O)CC3)c(F)c2)C(=O)O1 (stereo partly drawn) [Example 5, N-[[(5S)-3-[4-(3,4-Dihydro-1,1-dioxido-2H-thiopyran-4-yl)-3-fluorophenyl]-2-oxo-5-oxazolidinyl]methyl]acetamide] | 0.25 (≈ 0.654 µM) | 
O=C(NC[C@H]1CN(c2cc(F)c(C3C=CS(=O)(=O)CC3)c(F)c2)C(=O)O1)C(Cl)Cl (stereo partly drawn) [Example 31, 2,2-dichloro-N-({(5S)-3-[4-(1,1-dioxido-3,4-dihydro-2H-thiopyran-4-yl)-3,5-difluorophenyl]-2-oxo-1,3-oxazolidin-5-yl}methyl)acetamide] | 0.5 (≈ 1.07 µM) | 
O=C(NC[C@H]1CN(c2cc(F)c(C3C=CS(=O)(=O)CC3)c(F)c2)C(=O)O1)C(F)F (stereo partly drawn) [Example 30, N-({(5S)-3-[4-(1,1-dioxido-3,4-dihydro-2H-thiopyran-4-yl)-3,5-difluorophenyl]-2-oxo-1,3-oxazolidin-5-yl}methyl)-2,2-difluoroacetamide] | 1 (≈ 2.29 µM) | 
CC(=O)NC[C@H]1CN(c2cc(F)c(C3C=CS(=O)(=O)CC3)c(F)c2)C(=O)O1 (stereo partly drawn) [Example 20, N-[[(5S)-3-[4-(3,4-dihydro-1,1-dioxido-2H-thiopyran-4-yl)-3,5-difluorophenyl]-2-oxo-5-oxazolidinyl]methyl]acetamide] | 1 (≈ 2.5 µM) | 
CCC(=O)NC[C@H]1CN(c2ccc(C3C=CS(=O)(=O)CC3)cc2)C(=O)O1 (stereo partly drawn) [Example 18, N-[[(5S)-3-[4-(3,4-dihydro-1,1-dioxido-2H-thiopyran-4-yl)phenyl]-2-oxo-5-oxazolidinyl]methyl]propionamide] | 1 (≈ 2.64 µM) | 144 to 147
O=C(NC[C@H]1CN(c2ccc(C3C=CS(=O)(=O)CC3)c(F)c2)C(=O)O1)C(F)F (stereo partly drawn) [Example 9, N-[[(5S)-3-[4-(3,4-dihydro-1,1-dioxido-2H-thiopyran-4-yl)-3-fluorophenyl]-2-oxo-5-oxazolidinyl]methyl]-2,2-difluoroacetamide] | 0.5 (≈ 1.2 µM) | 
O=C(NC[C@H]1CN(c2ccc(C3C=CS(=O)(=O)CC3)cc2)C(=O)O1)C(Cl)Cl (stereo partly drawn) [Example 16, 2,2-dichloro-N-[[(5S)-3-[4-(3,4-dihydro-1,1-dioxido-2H-thiopyran-4-yl)phenyl]-2-oxo-5-oxazolidinyl]methyl]acetamide] | 0.25 (≈ 0.577 µM) | 159 to 161
O=C(NC[C@H]1CN(c2ccc(C3C=CS(=O)(=O)CC3)c(F)c2)C(=O)O1)C(Cl)Cl (stereo partly drawn) [Example 11, 2,2-dichloro-N-[[(5S)-3-[4-(3,4-dihydro-1,1-dioxido-2H-thiopyran-4-yl)-3-fluorophenyl]-2-oxo-5-oxazolidinyl]methyl]acetamide] | 0.5 (≈ 1.11 µM) | 148 to 150
CC(=O)NC[C@H]1CN(c2ccc(C3C=C[S+]([O-])CC3)c(F)c2)C(=O)O1 (stereo partly drawn) [Example 4, N-[[(5S)-3-[4-(3,4-dihydro-1-oxido-2H-thiopyran-4-yl)-3-fluorophenyl]-2-oxo-5-oxazolidinyl]methyl]acetamide] | 1 (≈ 2.73 µM) | 
CC(=O)NC[C@H]1CN(c2cc(F)c(N3C=CS(=O)(=O)CC3)c(F)c2)C(=O)O1 [Example 8, N-[[(5S)-3-[4-(2,3-dihydro-1,1-dioxido-4H-1,4-thiazin-4-yl)-3,5-difluorophenyl]-2-oxo-5-oxazolidinyl]methyl]acetamide] | 0.5 (≈ 1.25 µM) | 
O=C(NC[C@H]1CN(c2cc(F)c(N3C=CS(=O)(=O)CC3)c(F)c2)C(=O)O1)C(Cl)Cl [Example 28, 2,2-dichloro-N-[[(5S)-3-[4-(2,3-dihydro-1,1-dioxido-4H-1,4-thiazin-4-yl)-3,5-difluorophenyl]-2-oxo-5-oxazolidinyl]methyl]acetamide] | 0.5 (≈ 1.06 µM) | 
COC(=O)NC[C@H]1CN(c2ccc(C3C=CS(=O)(=O)CC3)cc2)C(=O)O1 (stereo partly drawn) [Example 19, (S)-[[3-[4-(3,4-dihydro-1,1-dioxido-2H-thiopyran-4-yl)phenyl]-2-oxo-5-oxazolidinyl]methyl]carbamic acid, methyl ester] | 2 (≈ 5.26 µM) | 196 to 197
CC(=S)NC[C@H]1CN(c2ccc(C3C=C[S+]([O-])CC3)c(F)c2)C(=O)O1 (stereo partly drawn) [Example 6, N-[[(5S)-3-[4-(3,4-dihydro-1-oxido-2H-thiopyran-4-yl)-3-fluorophenyl]-2-oxo-5-oxazolidinyl]methyl]ethanethioamide] | 0.25 (≈ 0.654 µM) | 
